According to patent US8062662B2, “Liposomes containing an entrapped compound in supersaturated solution” (Alza Corporation, priority 2000, dated 2011):

Experiment: [1H,15N] HSQC NMR / HPLC: reactivity of cisplatin with histidine and leakage from liposomes
Type: physicochemical
Conditions: 24-hour incubation, 1:1 mole ratio with N-acetyl histidine
Description: Inverse detection experiments detect the protons that are coupled to ^15N and thus provide information about the chemical shifts and coupling constants of the ^15N which depend on the ligands in the first coordination sphere of the Pt and on its oxidation state. […] HSQC and HMQC are two-dimensional inverse detection experiments that have the proton chemical shifts on one axis and the ^15N chemical shifts on the second axis. HSQC and HMQC of ^15N-labeled Pt complexes have been used successfully, to detect micromolar concentrations of Pt complexes. In the studies performed in support of the invention, HSQC was used, since it gives narrower lines and better resolution than HMQC. […] In addition to the tremendous gain in sensitivity, HSQC selectively detects only the protons that are coupled to the ^15N, thus ignoring all the other protons in the solution (from the liposomes) and simplifying the interpretation of the data.
These associations are irreversible, thus making the drug unavailable, once bound.
A similar study was carried out with N-BOC-methionine.
Lipids (HSPC/cholesterol/^2000PEG-DSPE 51:44:5) were dissolved in ethanol. […] Aliquots of the liposomes and of both precipitates were analyzed by heteronuclear single quantum coherence (HSQC) at 30° C. […]
All [^1H, ^15N] […] The 2D data were recorded using Bruker sequence of […] […]

Structure (SMILES): N.N.[Cl][Pt][Cl] [^15N-cisplatin, cis-^15N-diamminedichloroplatinum(II)]
- cisplatin-histidine species, share of the platinum detected (HPLC): 20-30%
